Data set [1] concerns primary TM cells embedded in collagen gel. Put plainly: collagen gel embedded expansion and/or contraction assay. It is filed as cell-based, human. Conditions: 10 pmole lipid, collagen column length at 24 hours. On the procedure:
About 10,000 primary TM cells were placed in a capillary tube with rat collagen without (control) or after treatment with 10 pmole of indicated lipid. The change in collagen column length was measured at the end of 24 hours. Mean and standard deviation from three independent experiments are presented. As shown by yellow/gray zones, the expansions were categorized into four zones (2, 3 and 4 are identified), 1=[…]; 2=1.0 to 1.4 mm; 3=>1.4 mm but <2.0 mm; 4=2.0 and >2.0 mm.
Properties of cell ensembles in embedded matrix and assembled layer of cells on filter membranes. Gel embedded primary TM cells in collagen matrix in capillary tubes were prepared following established protocols (Ilagan, R. et al. Biotechniques. 2010; 48: 153-5), and their ability within the first 24 hours for expansion or contraction of gels (control) or the cells which were subjected to treatment with lipids for 1 hour in serum free medium prior to gel embedding were determined. Lipids that modulate cell expansion in matrix embedded assay systems (FIG. 3) were found. […] The extent of expansion was divided into four zones 1, 2, 3, and 4 (FIG. 3). The higher the number, the greater is the expansion.
Collagen gel expansion and/or contraction assay: Hydro-gel solution was prepared using 10× MEM (cat #11430, Invitrogen), Sodium Bicarbonate (cat #55761 Sigma-Aldrich), L-Glutamine (Sigma-Aldrich), HEPES (cat #15630, Invitrogen). The following solution was aliquoted in separate tubes for each transfection type. Transfection complexes were prepared in individual tubes containing a mixture of the transfection agent (Lipofectamine 2000, Invitrogen) and desired DNA vectors in a ratio of 0.4 ug/uL, following the manufacturer's preparation guidelines. Trabecular meshwork cells were obtained from a confluent layer of trypsin-treated 25 cm^2 cell culture flask (cat #353109, Becton Dickinson, Franklin Lakes, N.J.) sedimented for 5 minutes at 800 RPM. Cell pellet was then re-suspended in serum free DMEM 1×, (Mediatech) media, thoroughly mixed and finally, equally aliquoted into each respective transfection-complex containing vessel. The reaction was allowed to occur for 45 minutes, after which it was terminated through addition of cell culture media and rat tail collagen (cat #354249, BD, San Jose, Calif.) to initiate gel polymerization. The suspension was gently mixed by aspiration and aspirated into 1 mL single use needle syringe and injected into a borosilicate glass capillary (O.D −1.0 mm, IN.D −0.75 mm) (cat #TW100-6, WPI) to approximately half of its volume. A digital picture snapshot was taken of all capillaries prepared against a blank background with a millimeter scale, repeated at 24 and 48 hours. The hydro-gel containing capillaries were incubated inside a moisture chamber to prevent dehydration in a cell line incubator at 37° C. and 5% CO2. Photographs obtained were analyzed using ImageJ (v.1.43u) measuring between chosen points on the opposite ends of the gel. Amassed length data was statistically analyzed using Microsoft Excel (XP).

Data set [2] relates to DBA/2J mice. The experiment in a line: IOP lowering after topical application in DBA/2J mice. It is filed as in vivo, mouse. Conditions: DBA/2J mice, topical 10 pmole in 5% DMSO, once daily. On the procedure: The right eye was treated with vehicle alone and left eye treated with lipid. Control had both eyes treated with vehicle. A. In DBA/2J mice the indicated lipid in vehicle or control (vehicle only) were administered one daily at around 7.5 months of age in mice which were noted to have a IOP≥18 mm of Hg (20% increase from an average baseline of 15 mm of Hg was employed as treatment point). The average IOP recordings are shown for indicated lipids. B. A 10 picomole each of six PC (13:0/13:0; PE (18:0/18:0), Lyso-PS 18:0, PS 18:1, Sphinganine and C17S1P) were combined and applied as a topical dose once daily for up to 7 days on DBA/2J mouse eyes in 5% DMSO (vehicle). […] Transgenic myocillin mice [Tg-MYOC(Y437H)] subjected to a topical dose of indicated lipids as noted above (FIG. 5C). The IOP lowering compared to control was noted on day 4 and 6 as shown.
Intraocular pressure lowering in mouse models. The endogenous lipids lowered IOP in a DBA/2J mouse model of glaucoma (FIG. 5A). DBA/2J is the only known mouse animal where elevation of IOP occur spontaneously. Although this mouse also suffers from pigmentary dispersion, however, elevation of IOP appears not to correlate with […]. The lipids as indicated were applied as a topical dose (10 pmole in 5% DMSO as vehicle). The 5% DMSO only vehicle served as a control (FIG. 5A). […] A 10 picomole each of six PC (13:0/13:0; PE (18:0/18:0), Lyso-PS 18:0, PS 18:1, Sphinganine, and C17S1P) were combined and applied as a topical dose once daily for up to 7 days on DBA/2J mouse eyes in 5% DMSO (vehicle) (in other words, 10 picomoles of each PC was included). […] In addition to the DBA/2J model described here, these endogenous lipids lowered IOP in cochlin and connective tissue growth factor (CTGF) over-expression models. […] Thus the endogenous lipids assessed here lowered IOP in vastly different DBA/2J and MYOC(Y437H) mouse models as well as in cochlin and CTGF overexpression models covering a broad swath of four rodent glaucoma models that encompass induced as well as spontaneous IOP elevation.
Topical application of lipids and measurement of IOP: The lipids were topically applied as 1 μl drops with 10 pmole lipids. Pressure was measured with a tonolab (Colonial
Medical Supplies, N.H.) or with an assembled cannulation device, used in our laboratory. An initial assessment had utilized 10% DMSO as vehicle. However, all data reported here utilized 5% DMSO.

In data set [3] the test system is normotensive cynomolgus monkeys. Put plainly: IOP and slit lamp examination in normotensive cynomolgus monkeys after topical lipid. It is filed as in vivo. On the procedure:
Lipids were topically administered in 1 μl volume around ˜1 pm in the afternoon. The right eye was treated with vehicle alone, and the left eye was treated with lipid. The cynomolgus monkeys (n=4) were treated with […] lipid (except C17S1P which was 50 nM) for 5 days. Monkeys were subjected to slit lamp examination and IOP measurement prior to and after treatment. The IOP measured 3-6 hours post-treatment on the fifth day of treatment is depicted as solid bars. The hollow bars are control (vehicle only (5% DMSO)).
Experimental design: The IOP-reducing activity of six lipids was tested in the eyes of cynomolgus monkeys (n=4 animals for each lipid). Baseline slit lamp biomicroscopic examination (SLE) and IOP for each group of animals was measured prior to topical application of lipids. The SLE and IOP were then measured at 3-6 hours posttreatment. One eye of each monkey received topical application with the lipid suspended in vehicle (1% dimethylsulfoxide (DMSO)), and the contralateral eye was treated with vehicle only. All topical applications contained 10 picomole of lipid (except C17S1P, which was 50 nM). […] The IOP was measured using a minified Goldmann applanation tonometer.

Consider `CCCCCCCCCCCCCC[C@@H](O)[C@@H](N)COP(=O)(O)O` [C17 Sphinganine-1-phosphate], for which the “gel expansion/contraction of cells in artificial embedment” value (“gel expansion/contraction of cells” for short) in data set [1] is reported as “showed an effect”. In addition, in data set [2], the “lowering of IOP” value is listed as “lowering of IOP”. In addition, the IOP reduction result in data set [3] (topical 10 picomole (C17S1P 50 nM), 5 days, IOP 3-6 hours post-treatment) is given as “reduced IOP significantly”. The “adverse side effects or toxicity” value in data set [3] (topical, slit lamp examination) was “without additional adverse side effects or toxicity”.

For `CCCCCCCC/C=C\CCCCCCCC(=O)N[C@@H](CO)[C@H](O)CCCCCCCCCCCCCCC` [Cer(d18:0/18:1(9Z))], the “gel expansion/contraction of cells” value in data set [1] is “showed an effect”. Also, in data set [2], the “lowering of IOP” value is listed as “lowering of IOP”.

With `CCCCCCCC/C=C\CCCCCCCCCCCCCCCC(=O)N[C@@H](CO)[C@H](O)/C=C/CCCCCCCCCCCCC` [Cer(d18:1/26:1(17Z))], the “gel expansion/contraction of cells” value in data set [1] is “showed an effect”. The “lowering of IOP” value in data set [2] is reported as “lowering of IOP”.

As to `CCCC/C=C\CCCCCCCC(=O)O[C@H](COC(=O)CCCCCCCCCCC)COP(=O)([O-])OCC[N+](C)(C)C` [PC(12:0/14:1(9Z))], in data set [1], the “gel expansion/contraction of cells” value is given as “lack of any effect”. Moreover, the “lowering of IOP” value in data set [2] was “not”.

Regarding `CCCCCCCCCCCCC(=O)OC[C@H](COP(=O)([O-])OCC[N+](C)(C)C)OC(=O)CCCCCCCCCCCC` [PC(13:0/13:0), 1,2-ditridecanoyl-sn-glycero-3-phosphocholine, reference compound], the “gel expansion/contraction of cells” value in data set [1] was “lack of any effect”. Moreover, the “lowering of IOP” value in data set [2] is recorded as “not”.

Consider `CCCCCCCCCCCCCCCCCC(=O)OC[C@H](COP(=O)(O)OCCN)OC(=O)CCCCCCCCCCCCCCCCC` [PE(18:0/18:0)], for which the “gel expansion/contraction of cells” value in data set [1] is given as “showed an effect”. In data set [2], the “lowering of IOP” value is given as “lowering of IOP”.

On to `CCCC/C=C\C/C=C\CCCCCCCC(=O)O[C@H](COC(=O)CCCCCCCCCCC)COP(=O)(O)OC1C(O)C(O)C(O)[C@@H](O)C1O` (some centres unmarked) [PI(12:0/17:2)9Z,12Z))], for which the “gel expansion/contraction of cells” value in data set [1] is on record as “showed an effect”. The “lowering of IOP” value in data set [2] was “lowering of IOP”.

With `CCCCC/C=C\C/C=C\C/C=C\C/C=C\CCCC(=O)O[C@H](COC(=O)CCCCCCCCCCCCCCCCC)COP(=O)(O)OC1[C@H](O)[C@H](O)C(O)[C@H](O)[C@H]1O` (some centres unmarked) [PI(18:0/20:4)5Z,8Z,11Z,14Z))], the “gel expansion/contraction of cells” value in data set [1] is “showed an effect”. For the same molecule, in data set [2], the “lowering of IOP” value is recorded as “lowering of IOP”.

Take `CCCCCCCCCCCCCC(=O)OC[C@@H](O)COP(=O)(O)OC[C@H](N)C(=O)O` [PS(14:0/0:0)]: in data set [1], the “gel expansion/contraction of cells” value was “showed an effect”. The “lowering of IOP” value in data set [2] was “lowering of IOP”.

For the molecule `CCCCCCCCCCCCCCCCCC(=O)OC[C@@H](O)COP(=O)(O)OC[C@H](N)C(=O)O` [PS(18:0/0:0)], the “gel expansion/contraction of cells” value in data set [1] is reported as “showed an effect”. Also, the “lowering of IOP” value in data set [2] is given as “lowering of IOP”.

With `CCCCCCCCCCC/C=C/[C@@H](O)[C@H](COP(=O)([O-])OCC[N+](C)(C)C)NC(=O)CCCCCCCCCCCCCCCCCCCCCCCC` [SM(d16:1/25:0)], the “gel expansion/contraction of cells” value in data set [1] is reported as “showed an effect”. In addition, the “lowering of IOP” value in data set [2] is on record as “lowering of IOP”.

For `CCCCCCCCCCCCCCC[C@@H](O)[C@@H](N)CO` [Sphinganine], the “gel expansion/contraction of cells” value in data set [1] is reported as “showed an effect”. Besides, in data set [2], the “lowering of IOP” value is “lowering of IOP”.

The record behind these values is US10046001B2, “Compositions and methods for reducing intraocular pressure” (UNIVERSITY OF MIAMI, priority 2013, dated 2018).
